Test results: ChEMBL document CHEMBL3639115, “Benzimidazole inhibitors of leukotriene production” (2014)

Molecular target: T1, Arachidonate 5-lipoxygenase-activating protein (Homo sapiens, UniProt P20292)
T1 sequence (P20292 whole entry): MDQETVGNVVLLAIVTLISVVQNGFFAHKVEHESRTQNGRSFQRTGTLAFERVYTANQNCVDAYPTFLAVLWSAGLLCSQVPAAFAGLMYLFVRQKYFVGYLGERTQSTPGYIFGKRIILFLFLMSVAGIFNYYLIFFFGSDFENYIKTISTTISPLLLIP
Assay: Scintillation Proximity Assay: Compounds are assessed for the ability to bind to FLAP in a binding assay that measures compound-specific displacement of an iodinated (125I) FLAP inhibitor via a Scintillation Proximity Assay format (adapted from S. Charleson et al., Mol. Pharmacol., 1992, 41, 873-879).Cell pellets produced from sf9 insect cells expressing recombinant human FLAP protein are resuspended in buffer A [15 mM Tris-HCl (pH 7.5), 2 mM MgCl2, 0.3 mM EDTA, 1 mM PMSF]. The cells are lysed with a Dounce homogenizer and the material is centrifuged at 10,000xg for 10 minutes. The supernatant is then collected and centrifuged at 100,000xg for 60 minutes. To prepare membrane protein for an assay, an aliquot of the 100,000xg pellet is resuspended in 1 ml of buffer A, Dounce homogenized, and finally subjected to polytron mixing (30 seconds). Membrane protein (25 ul, 5 ug) is mixed with WGA SPA beads (Amersham) and stirred for 1 h. To an assay plate (Perkin Elmer FlexiPlate) is added 25 ul of test compound.

IC50: 0.0354 µM
Structure (SMILES): CC(C)(C)n1c(-c2ccccc2C(N)=O)nc2cc(-c3cnc(N)nc3)ccc21
